How the values were obtained:
[1] = target: T1, Corticosteroid-binding globulin (Homo sapiens) (UniProt P08185)
T1 sequence (whole entry): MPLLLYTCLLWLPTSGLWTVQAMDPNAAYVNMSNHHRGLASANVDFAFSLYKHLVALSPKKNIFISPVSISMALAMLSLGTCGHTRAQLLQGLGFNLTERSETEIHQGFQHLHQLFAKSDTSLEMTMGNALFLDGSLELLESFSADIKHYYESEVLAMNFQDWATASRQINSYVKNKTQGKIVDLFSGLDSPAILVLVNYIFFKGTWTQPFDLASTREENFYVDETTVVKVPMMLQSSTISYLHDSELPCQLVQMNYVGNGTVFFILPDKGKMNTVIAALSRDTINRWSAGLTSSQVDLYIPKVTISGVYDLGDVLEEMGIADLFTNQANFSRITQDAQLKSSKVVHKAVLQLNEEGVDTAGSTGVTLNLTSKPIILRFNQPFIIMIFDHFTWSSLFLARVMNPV
Description: Binding affinity to corticosteroid binding globulin

[2] = target: T2, Corticosteroid-binding globulin (Sus scrofa) (UniProt Q9GK37)
T2 sequence (whole entry): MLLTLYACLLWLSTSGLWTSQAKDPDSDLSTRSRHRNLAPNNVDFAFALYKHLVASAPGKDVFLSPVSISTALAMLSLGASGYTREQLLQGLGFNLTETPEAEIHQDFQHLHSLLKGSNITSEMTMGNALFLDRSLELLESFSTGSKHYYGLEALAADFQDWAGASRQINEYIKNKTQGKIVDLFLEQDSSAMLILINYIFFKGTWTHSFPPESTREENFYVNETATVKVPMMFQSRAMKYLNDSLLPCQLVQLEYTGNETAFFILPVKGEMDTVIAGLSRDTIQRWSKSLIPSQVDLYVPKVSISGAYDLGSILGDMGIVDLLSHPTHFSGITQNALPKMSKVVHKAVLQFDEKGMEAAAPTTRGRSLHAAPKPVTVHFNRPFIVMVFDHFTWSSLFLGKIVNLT
Description: Compound was tested for Corticosteroid binding globulin affinity

| SMILES | Log K [1] | Log K [2] |
| --- | --- | --- |
| C[C@]12CC[C@H](O)C[C@@H]1CC[C@@H]1[C@@H]2CC[C@]2(C)[C@@H](O)CC[C@@H]12 | 5 |  |
| CC(=O)OCC(=O)[C@@]1(O)CC[C@H]2C3CCC4=CC(=O)CC[C@]4(C)[C@H]3[C@@H](O)C[C@@]21C (single isomer, unassigned) | 7.55 |  |
| C[C@]12CCC(=O)C=C1CCC1[C@@H]2C(=O)C[C@@]2(C)[C@H]1CC[C@]2(O)C(=O)CO (single isomer, unassigned) | 6.89 |  |
| C[C@]12CCC(=O)C=C1CCC1[C@@H]2[C@@H](O)C[C@@]2(C)[C@H]1CC[C@]2(O)C(=O)CO (single isomer, unassigned) | 7.88 |  |
| CC(=O)[C@H]1CC[C@H]2[C@@H]3CCC4=CC(=O)CCC4[C@H]3CC[C@]12C (stereo not given in full) | 6.82 |  |
| C[C@]12CC[C@@H]3c4ccc(O)cc4CC[C@H]3[C@@H]1C[C@@H](O)[C@@H]2O | 5 |  |
| CC(=O)[C@@]1(O)CC[C@H]2[C@@H]3CCC4=CC(=O)CC[C@]4(C)[C@H]3CC[C@@]21C | 7.74 |  |
| C[C@]12CC[C@H]3[C@@H](CCC4=CC(=O)CC[C@@]43C)[C@@H]1CC[C@@H]2O | 6.72 |  |
| CC(=O)[C@H]1[C@H](C)C[C@H]2[C@@H]3CCC4=CC(=O)CC[C@]4(C)[C@H]3CC[C@@]21C | 7.12 |  |
| C[C@]12CC[C@H](O)CC1=CC[C@@H]1[C@@H]2CC[C@]2(C)C(=O)CC[C@@H]12 | 5 |  |
| C[C@@H]1C[C@@]2(C)C(=CC1=O)CC[C@H]1[C@@H]3CC[C@](O)(C(=O)CO)[C@@]3(C)C[C@H](O)[C@@]12F | 5.8 |  |
| C[C@]12CC[C@@H]3c4ccc(O)cc4CC[C@H]3[C@@H]1CC[C@@H]2O |  | 5 |
| CC(=O)[C@@]1(O)CC[C@H]2[C@@H]3CC[C@@H]4C[C@H](O)CC[C@]4(C)[C@H]3CC[C@@]21C | 5 |  |
| C[C@]12CCC(=O)C=C1CC[C@@H]1[C@@H]2CC[C@]2(C)C(=O)CC[C@@H]12 | 5.76 |  |
| CC(=O)[C@@]1(O)[C@H](O)C[C@H]2[C@@H]3CCC4=CC(=O)CC[C@]4(C)[C@H]3CC[C@@]21C | 6.25 |  |
| C[C@]12CCC(=O)C=C1CC[C@@H]1[C@@H]2[C@@H](O)C[C@]2(C=O)[C@@H](C(=O)CO)CC[C@@H]12 | 6.28 |  |
| C[C@]12C[C@H](O)[C@H]3[C@@H](CCC4=CC(=O)CC[C@@]43C)[C@@H]1CC[C@@H]2C(=O)CO | 7.88 |  |
| CC(=O)[C@H]1CC[C@H]2[C@@H]3CC=C4C[C@@H](O)CC[C@]4(C)[C@H]3CC[C@]12C | 5.25 |  |
| C[C@]12CC[C@H]3[C@@H](CCC4=CC(=O)CC[C@@]43C)[C@@H]1CC[C@@H]2C(=O)CO | 7.65 |  |
| C[C@]12C[C@@H](O)[C@H]3[C@@H](CCC4=CC(=O)CC[C@@]43C)[C@@H]1CC[C@@H]2C(=O)CO | 7.2 |  |
| C[C@]12CCC(=O)C=C1CC[C@@H]1[C@@H]2CC[C@@]2(C)[C@H]1CC[C@]2(O)C(=O)CO | 7.88 |  |
| CC(=O)[C@H]1CC[C@H]2[C@@H]3CCC4=CC(=O)CC[C@]4(C)[C@H]3C(=O)C[C@]12C | 6.78 |  |
| CC(=O)[C@H]1CC[C@H]2[C@@H]3CCC4=CC(=O)CC[C@]4(C)[C@H]3CC[C@]12C | 7.38 |  |
| C[C@]12C=CC(=O)C=C1CCC1[C@@H]2[C@@H](O)C[C@@]2(C)[C@H]1CC[C@]2(O)C(=O)CO (single isomer, unassigned) | 7.51 |  |
| C[C@]12CC[C@H]3[C@@H](CCC4=CC(=O)CC[C@@H]43)[C@@H]1CC[C@@H]2O | 6.14 |  |

— ChEMBL document CHEMBL1131014, “Three-dimensional quantitative similarity-activity relationships (3D QSiAR) from SEAL similarity matrices” (J Med Chem, 1998)
